These results are taken from PubChem BioAssay AID179 (DTP/NCI, 2004).

This assay relates to CEM cells HIV-1 protection, formazan growth assay. As to the kind of experiment: NCI AIDS Antiviral Assay. The settings on record: for pIC50: measured here: growth of uninfected CEM cells. Put shortly:
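CEM (human) cells, HIV-1 infected vs uninfected, 5-point dosing, formazan growth read-out. Retest threshold 50% protection.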

pEC50, pIC50: −log10 of the molar value. Where “and” joins values, the source holds several entries; their conditions need not be identical. Identical values can stand only once. Calls of active or inactive are those of the source.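 The calls were made as follows: active = compounds giving half or more protection of infected cells from virus-caused growth loss, again on retest; inactive = the rest.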

`CCOC(=O)Nc1cc(NC(/C=N/NC(C)=O)C(=O)OCC)c(OC)cc1NC(C)=O` (configuration not stated): the pEC50 is less than 3.70 and the pIC50 was less than 3.70. As for `COc1cc(CNc2nc3ccccc3nc2-c2cccs2)cc(OC)c1OC`, the pEC50 was less than 3.70 and the pIC50 is 4.83. For the molecule `O=C(CN1CCCCC1)CC(O)(C(F)(F)F)C(F)(F)F`, the pEC50 is less than 3.70 and the pIC50 is 4.18.

On to `Nc1ccc(N=Nc2ccc(N=Nc3c(S(=O)(=O)O)cc4cc(S(=O)(=O)O)c(N=Nc5ccc(N=Nc6ccc(N)cc6N)cc5)c(O)c4c3N)cc2)c(N)c1`, for which the pEC50 was 4.94 and the pIC50 is 4.30. Turning to `CCCC(=O)NC(Nc1ccc(S(=O)(=O)Nc2nc(C)cc(C)n2)cc1)(C(F)(F)F)C(F)(F)F`, the pEC50 is less than 3.70 and the pIC50 was less than 3.70.

Regarding `O=C(CC(C(=O)c1ccc(F)cc1)c1ccsc1)c1cccs1` (configuration not stated), the pEC50 is less than 3.70 and the pIC50 is less than 3.70. For the molecule `C/C(=N\NC(=S)N1CCCCC1)c1cccc(C)n1`, the pEC50 is less than 6.70 and the pIC50 is 8.21. The like results for `CCCCS(=O)(=O)O` were, in that order, less than 3.70 and less than 3.70.

In the case of `NC(=O)CNC(=O)c1ccc(NC(=O)c2ccccc2SC(=O)CCCC[n+]2ccccc2)cc1`, the pEC50 was 4.80 and the negative-log IC50 (pIC50) is 4.30. The like results for `Cc1cc([N+](=O)[O-])c(S(=O)(=O)c2ccccc2)c([N+](=O)[O-])c1` were, in that order, less than 4.65 and 5.44.

Regarding `O=C1c2ccccc2C(=O)N1CCCSCC(CO)SCCCN1C(=O)c2ccccc2C1=O` (configuration not stated), the pEC50 was less than 3.70 and the pIC50 is less than 3.70.

Consider `N#Cc1c(-c2ccccc2)c(C#N)c(=O)n(C2OC(CO)C(O)C(O)C2O)c1S` (configuration not stated), for which the pEC50 was less than 3.70; the pIC50 was < 3.70 and 3.85. For `CC(=O)OC1/C=C(\C)C(OC(C)=O)C/C=C(/C)CCC2C(/C=C/C1=O)C2(C)C` (configuration not stated), the pEC50 was less than 4.18 and the pIC50 is less than 4.18. On to `COc1ccc(/C=C/C(=O)c2c(-c3ccccc3)nn(C)c(=O)c2N2CC2C)cc1` (configuration not stated), for which the pEC50 is less than 4.19 and the pIC50 is 4.65. Regarding `COC1OC(CS(=O)(=O)O)C(O)C(O)C1O` (configuration not stated), the outcome was inactive.

As for `CN1CC[C@@H](c2ccccc2)[C@@H](O)C1`, the result was inactive.

For `CC(=O)OC1=C(CC2CCCC2=O)C(=O)CC1` (configuration not stated), the result was inactive. On to `OCCNc1nnc(NCCO)c2[nH]cnc12`, for which the outcome was inactive. For the molecule `CC(C)(C)n1c(=O)n2c(-c3ccccc3)c(-c3ccccc3)n2c1=O`, the pEC50 was less than 3.70 and the pIC50 was 4.59. The like results for `Cc1cc(N)c(C)c2c1[nH]c1ccc(O)cc12` were, in that order, less than 3.52 and 4.54.

Regarding `CC(=O)OC1COC(n2c(N)c(C#N)c(-c3ccccc3)c(C#N)c2=S)C(OC(C)=O)C1OC(C)=O` (configuration not stated), the pEC50 is less than 3.70; the pIC50 was 4.47 and 4.44. On to `CSc1nc(N)c2c(-c3ccccc3)c3c(nc2n1)CCCC3`, for which the pEC50 was less than 3.70 and the pIC50 was less than 3.70. `N#C/C(=C\c1ccc(Br)cc1)c1nc(-c2cc3ccccc3oc2=O)cs1`: the pEC50 was 4.08 and the negative-log IC50 (pIC50) is less than 4.00. In the same order, the values of `O=C(Nc1ccccc1)N1CC(CN2CCN(c3ccccc3)CC2)OC1=O` (configuration not stated) are less than 3.70 and less than 3.70. The like results for `C=C1C=CN(C(C)=O)C(OC(C)=O)C1SC(C)(C)C` (configuration not stated) were, in that order, less than 3.70 and 4.24. On to `Cc1cc(Cl)c2c(c1)C(=O)/C(=C/c1ccc(Cl)cc1)O2`, for which the pEC50 is less than 3.70 and the pIC50 is 4.80. In the same order, the values of `Cc1nnc2n1N=C(CC(=O)c1ccc(O)cc1O)CN2N` are less than 3.08 and less than 3.08. The like results for `O=C1NC(=O)C(CC2CCCCCCCCCCC2=O)C(=O)N1` (configuration not stated) were, in that order, less than 3.95 and less than 3.95. `O=C(/C=C/c1cccs1)c1ccc(C(=O)/C=C/c2cccs2)cc1`: the pEC50 was less than 3.70 and the pIC50 is 4.34. In the same order, the values of `COc1cccc(/C=N/[N+](C)(C)C)c1O` are less than 3.70 and less than 3.70.

`ClC1=C(Cl)C(Cl)(Cl)SS1`: the pEC50 was less than 3.70 and the pIC50 was 4.48.

In the case of `O=C(Nc1ccc(Br)cc1)c1c(-c2ccccc2)c2ccc(O)cc2oc1=O`, the pEC50 was less than 4.46 and the negative-log IC50 (pIC50) is 4.49. Turning to `CCC(C)N1CN(c2ccccc2)C2(CCN(CC3COc4ccccc4O3)CC2)C1=O` (configuration not stated), the pEC50 is less than 3.70 and the pIC50 was 4.53. The like results for `CCOC(=O)CNC(=O)Sc1ccccc1C(=O)N[C@@H](C)C(N)=O` were, in that order, 5.74 and 4.01. In the case of `C#CCOCn1cnc2c(Cl)ncnc21`, the pEC50 is less than 2.95 and the pIC50 is 4.10.

On to `CNC(=O)NC(CCCCNC(=O)OCc1ccccc1)C(=O)OCc1ccccc1` (configuration not stated), for which the pEC50 is less than 4.08 and the pIC50 was 4.40. As for `CN(C)c1ccc(/C=C(\C#N)c2ccc(Cl)c(Cl)c2)cc1`, the pEC50 was less than 4.00 and the pIC50 is 5.44. In the same order, the values of `Nc1ccccc1C(=O)N=Nc1c(O)[nH]c2ccccc12` are less than 3.70 and less than 3.70. In the same order, the values of `COc1cc2c(cc1O)C1Cc3cc(OC)c(OC)cc3C(C2)N1C` (configuration not stated) are less than 4.40 and less than 4.40. In the same order, the values of `C=CC1(C)C=C2C(O)CC3C(C)(C(=O)OC)CCCC3(C)C2CC1` (configuration not stated) are less than 4.66 and 4.96. Regarding `COC12OC3(C4OC41)C(C(=O)O[C@H]3CO[Si](C)(C)C(C)(C)C)C2S(=O)(=O)c1ccccc1` (some centres not stated), the pEC50 was less than 3.70 and the pIC50 was 3.89. For `COc1ccc(-c2cc(-c3ccco3)c(C#N)c(=S)n2C2OC(CO)C(O)C(O)C2O)cc1` (configuration not stated), the pEC50 was 4.43 and the pIC50 was less than 3.70. In the same order, the values of `CCOC(=O)/C=C1/Nc2cc(F)c(F)cc2NC1=O` are less than 3.70 and less than 3.70. Regarding `C=CCCCN1C(=O)CCCC1=O`, the outcome was inactive. As for `CC(C)(Oc1ccc(C(=O)c2ccc(Cl)cc2)cc1Cl)C(=O)N1CCN(CCO)CC1`, the pEC50 was less than 3.70 and the pIC50 was 5.35. The like results for `Cc1c(C(=O)NNc2ccccc2)n2c(=S)[nH]nc2c2ccccc12` were, in that order, less than 3.70 and 4.03. In the same order, the values of `O=C(O)CCC1COc2ccccc2O1` (configuration not stated) are less than 3.70 and less than 3.70. As to `O=C1OC(=O)c2cc3c(cc21)C(=O)O/C3=C\c1ccccc1`, the outcome was inactive. With `O=C1C(=Cc2ccc(F)cc2)C(=O)c2ccccc21`, the pEC50 is less than 4.97 and the pIC50 was less than 4.97.

As for `O=S1(=O)CC2C3CC(Oc4ccccc4)C(C3)C2C1` (configuration not stated), the pEC50 was less than 3.97 and the pIC50 is less than 3.97. For `CC1(c2cccc3ccc(F)cc23)OC(=O)c2ccccc21` (configuration not stated), the pEC50 was less than 4.38 and the pIC50 is 5.10. The like results for `CCOC(=O)/C(=C\c1cccc(Cl)c1)P(=O)(OCC)OCC` were, in that order, less than 3.42 and 4.09. The like results for `CC12CCC(=O)N1[C@@H](c1ccccc1)[C@@H](c1ccccc1)O2` (some centres not stated) were, in that order, less than 3.63 and less than 3.63.

Regarding `COc1cc(-c2coc3cc(O)ccc3c2=O)c(O)c(OC)c1OC`, the pEC50 was less than 3.70 and the pIC50 was 4.14.
